Patent US20020061869A1, “Free insulin testosterone test” (priority 1998, published 2002)

What was measured:
[1] = test system: subject (tissue glucose stores); test: Example 5: intramuscular testosterone enanthate, Hemoglobin A1C; format: in vivo, human; details: 9.9 in May
Protocol: Testosterone enanthate 300 mg was given to a subject intramuscularly twice weekly for four weeks, then continued with therapy of 300 mg every two weeks.

[2] = test system: diabetic patient on oral hypoglycemic agents; test: Example 3: intramuscular depo-testosterone in a person on oral hypoglycemic agents; format: in vivo, human; details: 250 mg intramuscularly three times weekly for four weeks
Protocol: J. G. was a person on oral hypoglycemic agents for ten years. Present dosage was 20 mg/day, Micronase 7 (Upjohn). They presented with ulcerations in four areas of their left foot, no dorsal pedis pulsation, and was scheduled for amputation but refused. Fasting glucose was 244.

[3] = test system: insulin dependent diabetic patient; test: Example 2: intramuscular depo-testosterone enanthate in an insulin dependent diabetic person; format: in vivo, human; details: 150 mg intramuscularly three times weekly
Protocol: A. W. was a person who has been an insulin dependent diabetic for fifteen years. […] They were scheduled for amputation. They used 24 units of Humulin insulin in the morning and 16 units at night. Their fasting blood glucose was 334. Treated with 150 mg of depo-testosterone enanthate intramuscularly, three times weekly, they became euglycemic on less than 12 units daily; see FIG. 1. However, due to the infected heel ulcer, amputation proceeded.

[4] = biological target: T1, sex hormone-binding globulin (Homo sapiens, UniProt P04278); details: readily reversible at 37° C.; cited from earlier work
T1 sequence (P04278 30-402): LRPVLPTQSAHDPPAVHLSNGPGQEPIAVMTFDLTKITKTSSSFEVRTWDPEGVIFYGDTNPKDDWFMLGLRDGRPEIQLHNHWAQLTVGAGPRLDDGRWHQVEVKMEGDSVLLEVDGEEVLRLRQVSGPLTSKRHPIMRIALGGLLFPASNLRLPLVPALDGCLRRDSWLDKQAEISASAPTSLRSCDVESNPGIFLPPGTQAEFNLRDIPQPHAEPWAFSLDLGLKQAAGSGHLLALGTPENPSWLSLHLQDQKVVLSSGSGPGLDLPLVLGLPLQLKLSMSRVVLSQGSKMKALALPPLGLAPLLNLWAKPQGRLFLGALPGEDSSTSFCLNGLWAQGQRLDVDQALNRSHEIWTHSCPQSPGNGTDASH

[5] = test system: men with cluster headaches; test: Testosterone supplementation in men with cluster headaches and low Testosterone Ratio Test; format: in vivo, human; details: two men; supplementation to therapeutic levels at the normal male maximum
[6] = test system: insulin dependent diabetes mellitus patient; test: Example 1: intramuscular aqueous testosterone in an insulin dependent diabetic person with gangrene; format: in vivo, human
Protocol: C. W. was a person with a fifteen-year history of insulin dependent diabetes mellitus. They were hospitalized with gangrene of the middle finger of their right hand and was scheduled for amputation. They had already had bilateral femoral-popliteal bypass surgery for vascular insufficiency of the lower extremities. Due to anorexia, they were given an intramuscular injection of 200 mg of aqueous testosterone. Their fasting glucose fell from 212 to 159.

[7] = test system: patient with uncontrolled diabetes; test: Example 4: testosterone subcutaneous pellets in a person with uncontrolled diabetes; format: in vivo, human; details: 250 to 900 mg subcutaneous pellets every six weeks over six months, before: 100 units of Humulin
Protocol: G. S. was a person with uncontrolled diabetes for ten years. Seen intermittently for ulceration of the feet, they presented with a serum glucose of 550 while on 100 units of Humulin. They refused admission to the hospital.
Over the course of six months, […] received 250 to 900 mg of […] testosterone subcutaneous pellets every six (6) weeks. […] insulin requirements were reduced 35 units while […] serum glucose remained stable at 140 to 180 mg/dl; see FIG. 3.

rats = test system: rats; design: dose or concentration left out as unconfirmed; details: female rats, high dose, cited from earlier work
[8] = cited from earlier work
menopausal women = details: cited from earlier work

CCCCCCC(=O)O[C@H]1CC[C@H]2[C@@H]3CCC4=CC(=O)CC[C@]4(C)[C@H]3CC[C@]12C [Testosterone enanthate]
Hemoglobin A1C ([1]; August, 1998, 300 mg intramuscularly twice weekly for four weeks then every two weeks): 7.2 | Hemoglobin A1C ([1]; October, 1998, 300 mg intramuscularly twice weekly for four weeks then every two weeks): 5.5 | use of oral hypoglycemic agents ([2]; before: Micronase 20 mg/day): discontinuing their oral agents | glycemic status ([2]; person, fasting glucose before 244): euglycemic | insulin requirement daily ([3]; before: 24 units morning and 16 units at night): less than 12 units | glycemic status ([3]; person, fasting blood glucose before 334): euglycemic

C[C@]12CC[C@H]3[C@@H](CCC4=CC(=O)CC[C@@]43C)[C@@H]1CC[C@@H]2O [testosterone]
binding affinity K [4]: approximately 10^9 M^−1 | cluster headaches/migraines [5]: complete absence of cluster headaches/migraines for two years | healing of gangrenous finger ([6]; amputation made unnecessary): healed completely in two months | fasting glucose ([6]; person, after intramuscular injection of 200 mg, fell from 212): 159 | serum glucose outcome ([6]; repeated dosing every other day for one week): normalization of their serum glucose | insulin requirement (Humulin daily) ([6]; repeated dosing every other day for one week, decrease from 44 units): 24 units | insulin requirements reduced [7]: 35 units

Cc1c(C)c2c(c(C)c1O)CCC(C)(COc1ccc(CC3SC(=O)NC3=O)cc1)O2 (stereo not drawn) [troglitazone]
sarcomatous tumors (rats; daily for 104 weeks, dose associated with excessive mortality): statistically significant increase in sarcomatous tumors | exposure relative to estimated human exposure of parent compound (rats): 47 fold | side effects ([8]; as reported to date): abnormal liver function tests, jaundice, drop in white blood cell count and drop in hemoglobin which may persist for two years | lowering of effective blood level of co-administered drugs ([8]; oral contraceptives, terfenadine, and choleslyramine): up to 30%

estrogen
reduction of cardiovascular disease mortality (menopausal women): fifty percent
